# Test results: US20230159511A1, “TETRAHYDROISOQUINOLINE COMPOUNDS AS NRF2 ACTIVATORS” (C4X Discovery Limited, priority 2020, published 2023)
# Key:
# [1] = target: T1, human KEAP1 (N-term, residues 321-609) (Homo sapiens, UniProt Q14145); assay: KEAP1 Kelch Fluorescence Polarization (FP) Assay; assay type: binding; conditions: inhibition of Kelch domain-NRF2 interaction; 2 nM FITC-labelled NRF2 peptide, 25 nM KEAP1, 1 h room temperature; compounds below 10 nM cannot be differentiated
# T1 construct: human KEAP1 (N-term, residues 321-609)
# T1 sequence (Q14145 321-609): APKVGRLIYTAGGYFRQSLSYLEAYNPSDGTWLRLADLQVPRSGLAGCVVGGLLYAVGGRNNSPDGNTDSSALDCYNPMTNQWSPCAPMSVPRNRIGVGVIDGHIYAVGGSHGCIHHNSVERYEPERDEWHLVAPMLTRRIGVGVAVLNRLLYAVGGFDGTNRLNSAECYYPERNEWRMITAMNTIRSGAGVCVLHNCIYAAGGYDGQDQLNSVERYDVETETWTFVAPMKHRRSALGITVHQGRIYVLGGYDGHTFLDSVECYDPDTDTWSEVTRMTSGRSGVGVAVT
# In short: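 FP competition: 2 nM FITC-NRF2 peptide (LDEETGEFL) with 25 nM KEAP1 Kelch domain, pH 8.0 Tris buffer, 0.5% DMSO, 1 h at room temperature; 12-point 1:3 dilutions from 10 μM.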
# [2] = system: NRF2 mediated gene NAD(P)H:quinone acceptor oxidoreductase 1 (NQO1) in BEAS-2B cells; assay: Beas2B NQO1 mRNA Cell Based Assay; design: species or system human; conditions: Homo sapiens; BEAS-2B cells, compound for 24 h; increase in NQO1 mRNA compared to vehicle (0.1% DMSO) control; read-out: EC50
# In short: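 BEAS-2B cells treated 24 h with compound; NQO1 mRNA measured by one-step TaqMan RT-PCR on crude lysates, normalised to beta actin by ΔΔCT. Fold increase over 0.1% DMSO vehicle; EC50 from four-parameter logistic fit.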
IC50 [1],Compound,EC50 [2]
10.9 nM,"CNC(=O)[C@@]1(C)CCCC[C@H]1C(=O)N1CCc2c(Cl)ccc(OCc3nnn(C)c3C3CC3)c2[C@H]1CN1C[C@H](C)CC1=O [Example 113, (1S,2R)-2-((S)-5-chloro-8-((5-cyclopropyl-1-methyl-1H-1,2,3-triazol-4-yl)methoxy)-1-(((R)-4-methyl-2-oxopyrrolidin-1-yl)methyl)-1,2,3,4-tetrahydroisoquinoline-2-carbonyl)-N,1-dimethylcyclohexane-1-carboxamide]",299 nM
9.1 nM,"CNC(=O)[C@H]1CCCC[C@H]1C(=O)N1CCc2c(Cl)ccc(OCc3nnn(C)c3C(F)F)c2[C@H]1CN1CC2(CC2)CC1=O [Example 114, (1S,2R)-2-((S)-5-chloro-8-((5-(difluoromethyl)-1-methyl-1H-1,2,3-triazol-4-yl)methoxy)-1-((6-oxo-5-azaspiro[2.4]heptan-5-yl)methyl)-1,2,3,4-tetrahydroisoquinoline-2-carbonyl)-N-methylcyclohexane-1-carboxamide]",230 nM
